Reference: patent US20180312473A1, “PHENAZINE DERIVATIVES AS ANTIMICROBIAL AGENTS” (priority 2015, published 2018)
≈ marks a conversion by molar mass, not a printed value. Like-named read-outs stand apart in the source and are kept apart here.

Assays:
[1] = system: methicillin-sensitive S. aureus strains; test: MIC assay; type: cell-based; settings: Staphylococcus aureus; read-out: MIC against methicillin-sensitive S. aureus strains
[2] = system: S. aureus clinical isolate SA 129; test: MIC assay (broth microdilution, CLSI); settings: Staphylococcus aureus, read-out: MIC, SA 129
[3] = system: S. aureus clinical isolate SA 138; test: MIC assay (broth microdilution, CLSI); settings: Staphylococcus aureus, read-out: MIC, SA 138
[4] = system: S. aureus clinical isolate SA 156; test: MIC assay (broth microdilution, CLSI); settings: Staphylococcus aureus, read-out: MIC, SA 156
[5] = system: MRSA BAA-1707; test: MIC assay (broth microdilution, CLSI); settings: Staphylococcus aureus, read-out: MIC, MRSA BAA-1707
[6] = system: S. aureus clinical isolate SA 147; test: MIC assay (broth microdilution, CLSI); settings: Staphylococcus aureus, read-out: MIC, SA 147
[7] = system: MRSA BAA-44; test: MIC assay (broth microdilution, CLSI); settings: Staphylococcus aureus, read-out: MIC, MRSA BAA-44
[8] = system: MRSA-2 (methicillin-resistant Staphylococcus aureus clinical isolate); test: MIC assay (broth microdilution, CLSI); type: cell-based; settings: Staphylococcus aureus, MRSA, read-out: MIC, MRSA-2
[9] = system: MRSA-1 (methicillin-resistant Staphylococcus aureus clinical isolate); test: MIC assay (broth microdilution, CLSI); type: cell-based; settings: Staphylococcus aureus, MRSA, Table 11; read-out: MIC, MRSA-1
[10] = system: MRSE (S. epidermidis ATCC 35984) planktonic cells and biofilms; test: Calgary Biofilm Device (CBD) assay, MBC/MBEC; type: cell-based, Staphylococcus epidermidis; settings: for MBC: Staphylococcus epidermidis, read-out: MRSE 35984 MBC
[11] = system: Staphylococcus epidermidis (ATCC 35984), MRSE; test: MIC assay (broth microdilution, CLSI); type: cell-based; settings: Staphylococcus epidermidis
[12] = in vitro; type: cell-based; settings: human
[13] = system: MRSA-2 planktonic cells and biofilms; test: Calgary Biofilm Device (CBD) assay, MBC/MBEC; type: cell-based, Staphylococcus aureus
[14] = system: human red blood cells; test: Hemolysis assay with red blood cells; settings: 200 μM
How it was run: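 Hemolysis expressed as percent of the Triton X signal with DMSO as zero, using OD405 of supernatant. Compounds from DMSO stocks were incubated with triple-washed human erythrocytes for 1 hour at 37° C. before centrifugation; three independent experiments.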

[15] = system: Enterococcus faecium (ATCC 700221), VRE; test: MIC assay (broth microdilution, CLSI); type: cell-based
[16] = system: Staphylococcus epidermidis (ATCC 12228); test: MIC assay (broth microdilution, CLSI); type: cell-based; settings: Staphylococcus epidermidis
[17] = system: M. tuberculosis H37Ra (ATCC 25177); test: Mycobacterium tuberculosis MIC assay; type: cell-based; settings: Mycobacterium tuberculosis
How it was run: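 Culture diluted to OD600 0.01 and exposed to compounds in 0.5% final DMSO, each compound tested in three rows. Growth read as OD600 absorbance. Data from three independent experiments.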

[18] = system: P. aeruginosa (PAO1); test: MIC assay (broth microdilution, CLSI); type: cell-based; settings: Pseudomonas aeruginosa, PAO1; read-out: PAO1 MIC
[19] = system: A. baumannii 19606; test: MIC assay (broth microdilution, CLSI); type: cell-based, Acinetobacter baumannii; settings: Acinetobacter baumannii, 19606; read-out: A. baumannii 19606 MIC
[20] = system: E. coli UAEC-1; test: MIC assay (broth microdilution, CLSI); type: cell-based; settings: Escherichia coli, UAEC1; read-out: E. coli UAEC-1 MIC
[21] = system: VRE (E. faecium ATCC 700221) planktonic cells and biofilms; test: Calgary Biofilm Device (CBD) assay, MBC/MBEC; type: cell-based, Enterococcus faecium; settings: for MBC: Enterococcus, read-out: VRE 700221 MBC
[22] = system: MRSA-2; test: MIC assay with Tiron or metal(II) cation co-treatment; type: cell-based, Staphylococcus aureus; settings: Staphylococcus aureus; MRSA-2, no additive (Table 9); read-out: MIC
[23] = system: K. pneumoniae 13883; test: MIC assay (broth microdilution, CLSI); type: cell-based, Klebsiella pneumoniae; settings: Klebsiella pneumoniae, 13883; read-out: K. pneumoniae 13883 MIC
[24] = Aqueous solubility under MIC assay conditions; type: physicochemical; settings: MIC assay media, 37 °C, aqueous buffer; read-out: [aq. soluble]
[25] = system: methicillin-resistant S. aureus (MRSA) strains; test: MIC assay, values summarised over MRSA strains; type: cell-based, Staphylococcus aureus
[26] = system: MRSA BAA-1707 planktonic cells and biofilms; test: Calgary Biofilm Device (CBD) assay, MBC/MBEC; settings: Table 8
[27] = Table 7, a midpoint of 2-fold range, b lowest concentration tested
[28] = Table 2A, read-out: MIC, Staphylococcus epidermidis (ATCC 35984)
[29] = Table 7, read-out: MIC, MRSE 35984
[30] = Enterococcus faecium, Table 2A, read-out: MIC, Enterococcus faecium (ATCC 700221)
[31] = Table 7, b lowest concentration tested, read-out: MIC, VRE 700221
[32] = ATCC12228, read-out: MIC, S. epidermidis 12228
[33] = ATCC12228, read-out: MIC, Staphylococcus epidermidis (ATCC 12228)

Structure (SMILES)	MIC [2] [µM]	MIC [3] [µM]	MIC [4] [µM]	MIC [5] [µM]	MIC [6] [µM]	MIC [7] [µM]	MIC [8, 27] [µM]	MIC [9] [µM]	MIC [11, 28] [µM]	MIC [11, 29] [µM]	IC50 at 24 h [12] [µM]	% Hemolysis (200 μM) ([14]; human, 1 h, pH 7.2) [%]	% Hemolysis at 200 μM ([14]; human, 1 h, pH 7.2) [%]	MIC [15, 30] [µM]	MIC [15, 31] [µM]	MIC [16, 32] [µM]	MIC [16, 33] [µM]	further results
COc1cccc(OC)c1C(=O)N[C@@H]1C(=O)N2[C@@H]1SC(C)(C)[C@@H]2C(=O)O [Methicillin, methicillin, reference compound]	25 (≈ 9.51 µg/mL)	25 (≈ 9.51 µg/mL)	50 (≈ 19 µg/mL)	–	–	–	–	–	–	–	–	–	–	–	–	–	–	MIC [1]: 0.8 to 1.56 µM (≈ 0.304 to 0.593 µg/mL)
Oc1c(I)cc(I)c2nccnc12 [Compound 26]	6.25 (≈ 2.49 µg/mL)	6.25 (≈ 2.49 µg/mL)	3.13 (≈ 1.25 µg/mL)	1.56 (≈ 0.621 µg/mL)	6.25 (≈ 2.49 µg/mL)	1.56 (≈ 0.621 µg/mL)	3.13 (≈ 1.25 µg/mL)	1.56 (≈ 0.621 µg/mL)	3.13 (≈ 1.25 µg/mL)	3.13 (≈ 1.25 µg/mL)	> 100	≤1	≤1	12.5 (≈ 4.97 µg/mL)	12.5 (≈ 4.97 µg/mL)	–	–	MBC ([10]; Table 8): 750 µM (≈ 298 µg/mL); MBC ([13]; Staphylococcus aureus, MRSA, Table 4, read-out: MBC, MRSA-2): > 2000 µM; MBC ([13]; Staphylococcus aureus, MRSA, Table 8, a/b 2-/4-fold range in independent experiments, read-out: MRSA-2 MBC): > 2000 µM; MIC ([16]; ATCC12228, Table 2A, read-out: MIC, Staphylococcus epidermidis (ATCC 12228)): 6.25 µM (≈ 2.49 µg/mL); MIC ([16]; ATCC12228, Table 7, b lowest concentration tested, read-out: MIC, S. epidermidis 12228): 6.25 µM (≈ 2.49 µg/mL)
Oc1ccc(Br)c2nc3cc(Cl)c(Cl)cc3nc12 [Compound 11]	0.78 (≈ 0.268 µg/mL)	0.78 (≈ 0.268 µg/mL)	1.17 (≈ 0.402 µg/mL)	0.3 (≈ 0.103 µg/mL)	–	1.17 (≈ 0.402 µg/mL)	0.78 (≈ 0.268 µg/mL)	0.39 (≈ 0.134 µg/mL)	1.56 (≈ 0.537 µg/mL)	1.56 (≈ 0.537 µg/mL)	> 100	2.7	2.7	6.25 (≈ 2.15 µg/mL)	6.25 (≈ 2.15 µg/mL)	3.13 (≈ 1.08 µg/mL)	3.13 (≈ 1.08 µg/mL)	MIC ([17]; Table 7, read-out: MIC, M. tuberculosis H37Ra): 3.13 µM; MIC ([17]; read-out: MIC, M. tuberculosis): ~1 µg/mL; MIC [18]: > 100 µM; MIC ([8]; Table 2A): 0.78 µM (≈ 0.268 µg/mL); MIC [19]: > 100 µM; MIC [20]: > 100 µM; MBC ([21]; Table 8, c lowest concentration tested): 100 µM (≈ 34.4 µg/mL); MIC [22]: 0.78 µM; MIC [23]: > 100 µM; solubility at 16 h [24]: 200 µM (≈ 68.8 µg/mL); growth inhibition activity against at least one MRSA strain [25]: sub-micromolar
CN[C@H](CC(C)C)C(=O)N[C@H]1C(=O)N[C@@H](CC(N)=O)C(=O)N[C@H]2C(=O)N[C@H]3C(=O)N[C@H](C(=O)N[C@H](C(=O)O)c4cc(O)cc(O)c4-c4cc3ccc4O)[C@H](O)c3ccc(c(Cl)c3)Oc3cc2cc(c3O[C@@H]2O[C@H](CO)[C@@H](O)[C@H](O)[C@H]2O[C@H]2C[C@](C)(N)[C@H](O)[C@H](C)O2)Oc2ccc(cc2Cl)[C@H]1O [Vancomycin, vancomycin, reference compound]	–	1.17 (≈ 1.7 µg/mL)	–	–	1.17 (≈ 1.7 µg/mL)	–	–	–	–	–	–	–	–	–	–	1.17 (≈ 1.7 µg/mL)	1.17 (≈ 1.7 µg/mL)	MBC [10]: 3 µM (≈ 4.35 µg/mL); MRSE MBEC ([10]; Table 5): > 2,000 μM; MBC [21]: > 200 µM; VRE MBEC ([21]; Table 5, c lowest concentration tested): 150 µM; MRSA BAA-1707 MBEC [26]: > 2000 µM; MBC ([13]; Staphylococcus aureus, MRSA, read-out: MBC, MRSA-2): 5.9 µM (≈ 8.55 µg/mL); MBC ([13]; Staphylococcus aureus, MRSA, read-out: MRSA-2 MBC): 3 µM (≈ 4.35 µg/mL); MBC ([13]; Table 8, a/b 2-/4-fold range in independent experiments, read-out: MRSA-2 MBC): 3.0 µM (≈ 4.35 µg/mL); % Hemolysis (200 μM) ([14]; 1 h, 37 °C): ≤1%; % Hemolysis at 200 μM ([14]; red blood cells): <1%; % Hemolysis at 200 μM ([14]; Table 8, human red blood cells): ≤1%; MIC ([15]; Enterococcus faecium, read-out: MIC, Enterococcus faecium (ATCC 700221)): > 100 µM; MIC ([15]; Table 2B, b lowest concentration tested, read-out: MIC, Enterococcus faecium (ATCC 700221)): >100 µM; MIC ([15]; read-out: MIC, VRE 700221): > 100 µM
